From PubChem BioAssay (NCI)
Several values for one entry are separate records, joined by “and”; a condition that tells them apart may be missing. Equal values may be shown once.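 Values below derive from 48-hour exposures of cells grown in 96-well plates, with endpoints linearly interpolated between the two concentrations bracketing the appropriate inhibition level. GI50 marks 50% less growth. TGI: concentration producing complete growth inhibition.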

Columns and labels:
Assay in all cases: growth of human tumour cells (NCI), 48 h
[1] = system: SF-295 CNS
[2] = system: OVCAR-5 ovarian
[3] = system: SK-MEL-5 melanoma
[4] = system: HT29 colon
[5] = system: ACHN renal
[6] = system: MCF7 breast
[7] = system: T-47D breast
[8] = system: RPMI-8226 leukemia
[9] = system: HCT-15 colon
[10] = system: A549 NSCLC

SMILES | GI50 [1] | TGI [1] | GI50 [2] | TGI [2] | GI50 [3] | TGI [3] | GI50 [4] [µM] | TGI [4] | GI50 [5] | TGI [5] | GI50 [6] [µM] | TGI [6] | GI50 [7] [µM] | TGI [7] | GI50 [8] | TGI [8] | GI50 [9] | TGI [9] | GI50 [10] [µM] | TGI [10]
CCCCC1(CN2CCOCC2)S/C(=N/c2nc(CC(=O)OCC)cs2)NC1=O (stereo not given) | 35.3 µM | > 100 µM | 35.4 µM | > 100 µM | 24.2 µM | 75.2 µM | 40 | > 100 µM | 33.9 µM | > 100 µM | 34.4 | > 100 µM | 41.5 | > 100 µM | 25.6 µM | 80.6 µM | 40 µM | > 100 µM | 33.4 | > 100 µM
COc1ccc(C(=O)COc2cccc(/C=C3\Oc4ccc5ccccc5c4C3=O)c2)cc1 | 14.3 µM | 36.4 µM | 12.7 µM | 25.3 µM | 10.9 µM | 23.9 µM | 6.92 | 44.6 µM | 15.2 µM | 29 µM | 2.45 | 16.1 µM | 1.98 | 5.6 µM | 0.345 µM | 2.01 µM | 2.94 µM | 13.7 µM | 21.1 | 52.5 µM
COc1cc2c(c(OC)n1)[C@]1(O)[C@H](O)[C@H](CN(C)C)[C@@H](c3ccccc3)[C@]1(c1ccc(C#N)cc1)O2 | 0.0212 µM and 0.0231 µM | 0.811 µM and 1.84 µM | 0.0208 µM and 0.0174 µM | 0.866 µM and 1.43 µM | 0.0206 µM and 0.0196 µM | 0.0676 µM and 0.556 µM | < 0.01 | 4.25 µM and 4.04 µM | < 0.0116 µM and 0.0117 µM | 0.148 µM and 0.558 µM | < 0.01 | 0.721 µM and 3.09 µM | < 0.01 | 3.81 µM and 2.33 µM | 0.0151 µM and < 0.01 µM | 0.299 µM and 0.15 µM | 0.0243 µM and 0.0197 µM | 3.65 µM and 3.44 µM | < 0.01 | 8.42 µM and 8.64 µM
COc1cc2c(cc1O)C1Cc3ccc(OC)c(O)c3C(C2)N1C (stereo not given) |  | > 100 µM |  | > 100 µM |  | > 100 µM |  | > 100 µM |  | > 100 µM |  | > 100 µM |  | > 100 µM |  | > 100 µM |  | > 100 µM |  | > 100 µM
